Patent US7994326B2 (Northwestern University, priority 2003, dated 2011)
Where two headings read alike, the source gives them in different places.

Tests used:
Type in all cases: biochemical
[1] = molecular target: T1, rat nNOS (Rattus norvegicus, UniProt P29476); experiment: NOS enzyme inhibitory assay (hemoglobin capture), nNOS; details: for IC50: rat nNOS, 10 μM L-arginine
T1 construct: made in house; host or cells: E. coli (plasmid pCWnNOS)
Description: (§1) All of the NOS isoforms used were recombinant enzymes overexpressed in E. coli from different sources. Nitric oxide formation from NOS was monitored by the hemoglobin capture assay as described in the literature.
After approximately 48 h of post-induction incubation in the dark at 25° C. the cells were pelleted at 5300×g, transferred to 50 mL conical tubes, and stored at −80° C.
nNOS purification: Cell pellets from 2.0 L of culture were resuspended in sonication Buffer A (50 mM Tris Base Buffer, pH 8.0, 10% glycerol), 2 mg/ml lysozyme. 0.5 mM L-arginine. 1 mM EDTA, 0.1 mM PMSF, 1 µg/ml antipain, and 1 μM each of leupeptin, […], and […]) and lysed by sonication. Centrifugation for 1 h at 100000×g yielded supernatant which contained nNOS active enzyme. The supernatant was brought to 2 mM CaCl2 and the protein was loaded onto a 15 ml calmodulin-Sepharose column equilibrated with Buffer A containing 2 mM CaCl2. The column was washed with 100 ml Buffer B (50 mM Hepes, 5 mM DTT, and […]) containing 2 mM CaCl2, 0.5 mM L-arginine, and 10 μM BH4, and eluted with 30 ml Buffer B supplemented with 0.3 M NaCl, 5 mM EGTA, 0.5 mM L-arginine, and 10 μM BH4. The protein was then loaded onto a 5 ml 2′,5′-ADP-Sepharose column equilibrated with Buffer B supplemented with 0.3 M NaCl, 0.5 mM L-arginine, and 10 μM BH4. The column was washed with 25 ml Buffer B containing 0.5 mM L-arginine and 10 μM BH4, and then 25 ml of Buffer B only supplemented with 10 μM BH4 (without L-arginine). Neuronal NOS was eluted with 20 ml Buffer B supplemented with 10 mM 2′(3′)-AMP, 10 μM BH4 and 0.3 M NaCl. The 20 ml eluent was then concentrated to 5 ml by ultrafiltration. The above concentration operation was repeated twice more with 10 ml Buffer B supplemented with 10 µM BH4 to give the purified neuronal NOS.
Nitric oxide formation from NOS was monitored by the hemoglobin capture assay as described previously.
(§2) The selectivity of an inhibitor is defined as the ratio of the respective Ki values.

[2] = molecular target: T2, murine iNOS (Mus musculus, UniProt P29477); experiment: NOS enzyme inhibitory assay (hemoglobin capture), iNOS; details: for IC50: murine iNOS, 10 μM L-arginine
T2 construct: made in house; host or cells: E. coli (plasmid pCWiNOS)
Text: as §1
Enzyme inhibitory assay. All of the NOS isoforms used are recombinant enzymes overexpressed in E. coli from different sources.
iNOS expression: An overnight culture of pCWiNOS was used to inoculate (1:100) larger cultures of Terrific Broth media (12 g/L tryptone, 24 g/L yeast extract, 4 mL/L glycerol, 17 mM KH2PO4, and 72 mM K2HPO4) containing 50 μg/mL ampicillin and 34 μg/mL chloramphenicol at 37° C. At an OD600 of ˜0.5, the culture was cooled to 25° C. and induced by the addition of 1 mM IPTG (final concentration). After approximately 24 h of growth at 25° C., the cells were pelleted at 5300×g, transferred to 50 mL conical tubes, and stored at −80° C.
iNOS purification: Cell pellets from 1.0 L of culture were resuspended in sonication buffer (50 mM Hepes, pH 7.4, 10% glycerol, 10 μg/mL benzamidine, 5 μg/mL leupeptin, 0.2 mM of PMSF, and 1 μg/mL each of pepstatin, chymostatin, and antipain) and lysed by sonication. Centrifugation for 20 min at 13000×g yielded supernatant which contained iNOS active enzyme. iNOS supernatant was loaded onto 1 g of a 2′,5′-ADP-Sepharose 4B resin column. The column was then washed with 20 ml iNOS purification buffer (10 mM K2HPO4, 10% glycerol, 0.5 mM L-arginine, pH 7.4) and 10 μM BH4. Inducible NOS was eluted with 30 ml iNOS purification buffer supplemented with 10 mM 2′(3′)-AMP, 10 μM BH4, and 0.3 M NaCl. The eluent was concentrated to 5 ml by ultrafiltration. The above concentration operation was repeated three times more with 10 ml Hepes buffer supplemented with 10 μM BH4, to give purified inducible NOS.
(§3) Nitric oxide formation from NOS was monitored by the hemoglobin capture assay as described previously. (Hevel, J. M.; Marletta, M. A. Nitric Oxide Synthase Assays. Methods Enzymol. 1994, […], 250-258).
as §2

[3] = molecular target: T3, bovine eNOS (Bos taurus, UniProt P29473); experiment: NOS enzyme inhibitory assay (hemoglobin capture), eNOS; details: for IC50: bovine eNOS, 10 μM L-arginine, * = no inhibition observed up to the concentration listed
T3 construct: made in house; host or cells: E. coli (plasmid Bov-eNOSpCW)
Description: as §1
Expression of bovine eNOS: An overnight culture of Bov-eNOSpCW was used to inoculate 0.5 liter (in a 2.8-liter Fernbach flask) of modified TB (20 g of yeast extract, 10 g of bacto-tryptone, 2.65 g of KH2PO4, 4.33 g of Na2HPO4 and 4 ml of glycerol per liter) containing ampicillin ([…]) and chloramphenicol ([…]). The cultures were grown to an OD600 of z0.8 at 22° C. (200 rpm) and induced with 0.5 mM IPTG. One hour before IPTG induction, d-aminolevulinic acid (0.5 mM final) was added and, at the time of IPTG induction, riboflavin ([…]) and ATP (1 mM final) were also added. After induction, the flasks were kept in the dark at 22° C. (200 rpm). The cells were harvested 48 h after induction, and the cell pellet was frozen at −80° C. until purification was carried out.
Purification of bovine eNOS. The purification was typically carried out with eNOS from 2 liters of E. coli culture. The eNOS protein was purified using a modification of the published protocol for nNOS (14). The cells were resuspended in buffer C [50 mM Tris-Cl, pH 7.8, 1 mM EDTA, 1 mM DTT, 10% glycerol (v/v), 150 mM NaCl, 0.1 mM phenylmethylsulfonyl fluoride, […]], lysed by pulsed sonication and then centrifuged to sediment the cell debris. The supernatant was applied to a 2′,5′-ADP Sepharose 4B column equilibrated in buffer D [50 mM Tris-Cl, pH 7.8, 0.1 mM EDTA, 0.1 mM dithiothreitol, 150 mM NaCl, 10% glycerol (v/v)]. The column was washed with 20 column volumes of buffer B and again with 20 column volumes of buffer B containing 600 mM NaCl. Finally, protein was eluted with buffer B containing 600 mM NaCl and 5 mM 2′-AMP. The fractions were screened for absorption in the Soret region (A400) and hemoprotein-containing fractions were pooled and concentrated (Centriprep 50, Amicon). Repeated dilution/concentration [50 mM Tris-Cl, pH 7.8, 0.1 mM EDTA, 0.1 mM dithiothreitol, 10% glycerol (vol/vol)] was used to reach a final concentration of 150 mM NaCl and commensurately reduce the 2′-AMP content. […] The purified eNOS is stored in the presence of 1 mM L-arginine.
eNOS washing: eNOS contains a significant amount of L-arginine, which will interfere with the enzyme assay. The L-arginine can be removed by several dilution and concentration steps using an Amico concentrator. The dilution buffer is 10 ml Tris-HCl 50 mM containing 0.1 mM EDTA, 400 mM NaCl, 10% glycerol and 1 mM beta-mercaptoethanol. The above dilution and concentration operation was repeated three times to give purified eNOS.
as §3, §2

[4] = Table 1a, apparent Ki calculated from IC50, Km […], read-out: calc. Ki nNOS
[5] = Table 1a, apparent Ki calculated from IC50, Km […], read-out: calc. Ki iNOS
[6] = Table 1a, apparent Ki calculated from IC50, Km 1.7 μM, read-out: calc. Ki eNOS
[7] = Table 1b, ratio of Ki values eNOS/nNOS
[8] = Table 1b, ratio of Ki values iNOS/nNOS

Row | Compound | Selectivity n/e ([1]; Table 1a, Ki(eNOS)/Ki(nNOS)) | Selectivity n/i ([1]; Table 1a, Ki(iNOS)/Ki(nNOS)) | Ki [1, 4] [µM] | IC50 ([1]; Table 1a) [µM] | Ki [2, 5] [µM] | IC50 ([2]; Table 1a) [µM] | Ki [3, 6] [µM] | IC50 ([3]; Table 1a) [µM] | Selectivity n/e [1, 7] | Selectivity n/i [1, 8] | Ki ([1]; Table 1b, read-out: Ki nNOS) [µM] | Ki ([2]; Table 1b, read-out: Ki iNOS) [µM] | Ki ([3]; Table 1b, read-out: Ki eNOS) [µM]
1 | Nc1cccc(CC2CNCC2NC2CCN(Cc3ccccc3)C2)n1 (stereo not drawn) [Compound P-38] | 66.19 | 155.05 | 2.74 | 23.8 | 425 | 937 | 181 | 1250 | – | – | – | – | –
2 | Cc1cc(N)nc(C[C@H]2CNC[C@@H]2OCCN)c1.Cl.Cl.Cl (racemic) [Compound P-81] | – | – | – | – | – | – | – | – | 0.3 | 1.7 | 5 | 8.5 | 1.5
3 | Nc1cccc(C[C@H]2CNC[C@@H]2NCCNCc2ccccc2)n1 (racemic) [Compound P-18] | >703.88 | 11.49 | 14.5 | 126 | 166 | 366 | – | > 70000 | – | – | – | – | –
4 | Cc1cc(N)nc(C[C@H]2CNC[C@@H]2NCCN)c1.Cl.Cl.Cl.Cl (racemic) [Compound P-47] | 430.7 | 52.5 | 0.61 | 5.34 | 32 | 70.6 | 263 | 1810 | – | – | – | – | –
5 | Cc1cccc(CNCCN[C@H]2CNC[C@@H]2Cc2cc(C)cc(N)n2)c1.Cl.Cl.Cl.Cl (racemic) [Compound P-59] | – | – | – | – | – | – | – | – | 305.5 | 127.1 | 0.66 | 83.9 | 202
6 | Cc1cc(N)nc(CC2CNCC2NCCNCc2cccc(C(F)(F)F)c2)c1.Cl.Cl.Cl.Cl (racemic) [Compound P-52] | – | – | – | – | – | – | – | – | 563.6 | 65.8 | 0.206 | 13.6 | 116
7 | Nc1cccc(CC2CNCC2NC2CCNC2)n1 (racemic) [Compound P-35] | 311.85 | 146.75 | 1.36 | 11.8 | 200 | 440 | 424 | 2920 | – | – | – | – | –
8 | Cc1cc(N)nc(CC2CNCC2NCCNCc2ccc(Cl)c(Cl)c2)c1.Cl.Cl.Cl.Cl (racemic) [Compound P-65] | – | – | – | – | – | – | – | – | 153 | 57.4 | 0.414 | 23.8 | 63.2
9 | Nc1cccc(CC2CNCC2NCC(N)Cc2ccccc2)n1 (racemic) [Compound P-31] | >600 | 98.27 | 2.42 | 21 | 238 | 524 | > 1450 | > 10000 | – | – | – | – | –
10 | Cc1cccc(CNCCN[C@@H]2CNC[C@@H]2Cc2cc(C)cc(N)n2)c1.Cl.Cl.Cl.Cl (racemic) [Compound P-53] | – | – | – | – | – | – | – | – | 450.5 | 56.7 | 0.159 | 9.01 | 71.6
11 | Cc1cc(N)nc(CC2CNCC2NCCNCc2ccc(C(F)(F)F)cc2)c1.Cl.Cl.Cl.Cl (racemic) [Compound P-56] | – | – | – | – | – | – | – | – | – | – | – | – | 61.2
12 | Cc1cc(N)nc(CC2CNCC2N(C)CCNCc2ccc(Cl)cc2)c1 (racemic) [Compound P-64] | – | – | – | – | – | – | – | – | – | – | – | – | 125
13 | Cc1cc(N)nc(C[C@H]2CNC[C@H]2OCC(=O)NCCc2cccc(F)c2)c1 (racemic) [Compound P-79, (±)-2-{cis-4-[(6-amino-4-methylpyridin-2-yl)methyl]pyrrolidin-3-yloxy}-N-(3-fluorophenethyl)acetamide] | – | – | – | – | – | – | – | – | – | – | – | 13 | 125
14 | Cc1cc(N)nc(C[C@H]2CNC[C@@H]2N(C)CCNCc2ccc(Cl)cc2)c1 (racemic) [Compound P-69] | – | – | – | – | – | – | – | – | – | – | – | – | 58.1
